The text below walks through data of patent publication US8193191B2, “Urotensin II receptor antagonists” (Janssen Pharmaceutica N.V., priority 2006, dated 2012).

Each structure is given as a SMILES string.

The target of experiment [1] is T1, rat GPR14 (U-II receptor) (Rattus norvegicus, UniProt P49684).
T1 construct: expressed in transfected cells
T1 sequence (P49684 1-386): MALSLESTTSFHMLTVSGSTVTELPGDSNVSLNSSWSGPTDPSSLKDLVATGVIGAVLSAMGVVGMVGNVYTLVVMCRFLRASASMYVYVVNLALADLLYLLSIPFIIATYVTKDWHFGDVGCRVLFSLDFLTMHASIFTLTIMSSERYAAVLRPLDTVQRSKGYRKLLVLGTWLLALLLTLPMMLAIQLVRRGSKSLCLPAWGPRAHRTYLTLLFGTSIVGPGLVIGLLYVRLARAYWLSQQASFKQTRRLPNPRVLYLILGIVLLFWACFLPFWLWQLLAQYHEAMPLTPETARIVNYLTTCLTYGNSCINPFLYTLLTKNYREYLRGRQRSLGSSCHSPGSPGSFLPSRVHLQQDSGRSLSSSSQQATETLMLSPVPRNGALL
Nature of the experiment: Rat UII Calcium Mobilization FLIPR Assay. It is filed as cell-based. To be noted: average value for the compound tested; read-out: Rat UII FLIPR Average IC50. Summed up:
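CHO cells stably expressing rat U-II receptor, seeded 24 h before assay, were loaded with FLIPR calcium dye in HBSS/20 mM HEPES/0.1% BSA/2.5 mM probenecid, pH 7.4, for 1 h at 37° C. Calcium mobilization then read by FLIPR at 23° C.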
A general note: Calcium flux is commonly read through the fluorescence of an indicator in the cells.

Experiment [2] concerns the target T2, Human UII receptor, 6D9 human rhabdomyosarcoma cells (Homo sapiens, UniProt Q9UKP6).
T2 construct: 6D9: isolated by dilution subcloning of RMS13 cells, ATCC® Number: CRL-2061; host or cells: 6D9 human rhabdomyosarcoma cells (subclone of RMS13)
T2 sequence (Q9UKP6 1-389): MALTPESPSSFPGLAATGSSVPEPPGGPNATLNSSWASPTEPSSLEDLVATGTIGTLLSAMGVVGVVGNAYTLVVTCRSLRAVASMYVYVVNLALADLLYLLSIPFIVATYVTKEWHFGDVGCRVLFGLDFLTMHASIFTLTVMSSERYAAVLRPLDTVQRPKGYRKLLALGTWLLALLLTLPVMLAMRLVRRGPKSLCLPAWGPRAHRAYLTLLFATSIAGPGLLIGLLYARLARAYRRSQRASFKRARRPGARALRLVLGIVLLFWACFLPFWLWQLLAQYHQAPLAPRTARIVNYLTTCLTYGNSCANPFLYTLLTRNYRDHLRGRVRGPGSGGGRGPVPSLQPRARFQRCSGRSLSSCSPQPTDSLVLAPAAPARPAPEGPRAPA
Nature of the experiment: Human UII Calcium Mobilization Assay. The format is cell-based. To be noted: average value, FLIPR TETRA, read-out: Human UII Ca^+ Mobilization Average IC50. The method, then: 6D9 human rhabdomyosarcoma cells were seeded into tissue culture treated 384-well black-walled clear bottom plates (3712, Corning Incorporated, Corning, N.Y.) at 8,000 cells/well in 25 μL of culture medium, and maintained in an incubator (5% CO2 at 37° C.) for 22 hrs prior to the calcium mobilization assay. 25 μL of dye solution was added to the wells such that the final liquid volume before agonist/antagonist treatment was 50 μL for all assays. The cell plates were incubated at 37° C. for 45 minutes and the fluorescence intensity was measured on a Fluorometric Imaging Plate Reader (FLIPR^TETRA, Molecular Devices, Sunnyvale, Calif.).
Antagonist and agonist U-II were added at room temperature on the FLIPR^TETRA, and the fluorescence intensity before and after addition was measured over a period of 4 minutes. The dye incubation time and temperature as well as instrument setting was adjusted so the fluorescence intensity could be compared between plates on the same day. EC50 and IC50 were analyzed using GraphPad Prism 4 software (GraphPad Software Inc., San Diego, Calif.).
Materials and reagent Preparation: Human Rhabdomyosarcoma cells (6D9: isolated by dilution subcloning of RMS13 cells, ATCC® Number: CRL-2061, American Type Culture Collection ATCC, Manassas, Va.) was maintained in RPMI-1640 medium (30-2001, ATCC, Manassas, Va.) supplemented with 10% (v/v) Fetal Bovine Serum (SH30071.03, Hyclone, Logan, Utah).
Dye preparation: BD™ Calcium Assay Kit (80500-301, BD Biosciences, Rockville, Md.) was prepared according to the manufacture's instruction in 1× Hanks' balanced salt solution (HBSS, 21-023-CV, Mediatech, Inc. Herndon, Va.) containing 20 mM HEPES buffer (25-060-CI, Mediatech, Inc. Herndon, Va.). Final dye loading conditions included 1.25 mM probenecid (P36400, Invitrogen, Carlsbad, Calif.) and 0.01% FBS.
Urantide (PUT-3639-PI, Peptide International, Louisville, Ky.) was prepared in water at 5 mM. For assays, U-II agonist, U-II antagonist and urantide were diluted with HBSS/HEPES containing 0.01% FBS.
Test compounds were dissolved in DMSO at 10 mM concentration. The serial dilutions were carried out in HBSS/HEPES. The highest final DMSO concentration was at 0.1%.

The target of experiment [3] is T3, endogenous human UII receptor (Homo sapiens, UniProt Q9UKP6).
T3 sequence (Q9UKP6 1-389): T2 sequence (Q9UKP6 1-389)
Kind of experiment: Human Radioligand Binding Assay ((^125I)-U-II binding to human skeletal muscle myoblasts).

Usually IC50 stands for the concentration at which inhibition is half-maximal. As for `COc1ccc(CN2C(=O)c3cccc(N4CCN(C5C6CC7CC(C6)CC5C7)CC4)c3C2=O)cc1OC` (stereo not shown) [Cpd 87, 4-(4-adamantan-2-yl-piperazin-1-yl)-2-(3,4-dimethoxy-benzyl)-isoindole-1,3-dione], the concentration for half-maximal inhibition (IC50) turned out to be 480 nM in experiment [1] and 1500 nM in experiment [2].

The Ki is a dissociation constant, usually derived from enzyme kinetics or from competition with a known ligand. The low end stands for higher affinity, the high end for lower affinity. In the case of `COC(=O)c1csc(S(=O)(=O)NCCCC(c2ccc(OC)c(OC)c2)N2C(=O)c3cccc(N4CCN([C@H](C)c5ccccc5)CC4)c3C2=O)c1OC` (stereo partly drawn) [Cpd 88, 5-(4-(3,4-dimethoxy-phenyl)-4-{1,3-dioxo-4-[4-(1R)-(1-phenyl-ethyl)-piperazin-1-yl]-1,3-dihydro-isoindol-2-yl}-butylsulfamoyl)-4-methoxy-thiophene-3-carboxylic acid methyl ester], the IC50 in experiment [1] was 320 nM; in experiment [2] it was greater than 3000 nM. The Ki in experiment [3] is 350 nM.

Take `COc1ccc(C(CCNC(=O)Cc2ccncc2)N2C(=O)c3cccc(N4CCN([C@H](C)c5ccccc5)CC4)c3C2=O)cc1OC` (stereo partly drawn) [Cpd 103, N-(3-(3,4-dimethoxy-phenyl)-3-{1,3-dioxo-4-[4-(1R)-(1-phenyl-ethyl)-piperazin-1-yl]-1,3-dihydro-isoindol-2-yl}-propyl)-2-pyridin-4-yl-acetamide]: the half-maximal inhibitory concentration (IC50) in experiment [1] amounted to 35 nM; in experiment [2], 590 nM.

`COc1ccc([C@@H](CCCNS(=O)(=O)c2cnc(C)n2C)N2C(=O)c3cccc(N4CCN([C@H](C)c5ccccc5)CC4)c3C2=O)cc1OC` [Cpd 127, (R)-2,3-dimethyl-3H-imidazole-4-sulfonic acid (4-(3,4-dimethoxy-phenyl)-4-{1,3-dioxo-4-[4-(1R)-(1-phenyl-ethyl)-piperazin-1-yl]-1,3-dihydro-isoindol-2-yl}-butyl)-amide]: the IC50 in experiment [1] came out at 6.4 nM; in experiment [2], 350 nM.

As to `CCn1cc(S(=O)(=O)NCCC[C@H](c2ccc(OC)c(OC)c2)N2C(=O)c3cccc(N4CCN([C@H](C)c5ccccc5)CC4)c3C2=O)cn1` [Cpd 134, (R)-1-ethyl-1H-pyrazole-4-sulfonic acid (4-(3,4-dimethoxy-phenyl)-4-{1,3-dioxo-4-[4-(1R)-(1-phenyl-ethyl)-piperazin-1-yl]-1,3-dihydro-isoindol-2-yl}-butyl)-amide], the concentration for half-maximal inhibition (IC50) in experiment [1] was found to be 19 nM. This compound showed a Ki in experiment [3] of 68 nM.

As to `COc1ccc([C@@H](CCCNS(=O)(=O)c2cn(C)nc2C(F)(F)F)N2C(=O)c3cccc(N4CCN([C@H](C)c5ccccc5)CC4)c3C2=O)cc1OC` [Cpd 135, (R)-1-methyl-3-trifluoromethyl-1H-pyrazole-4-sulfonic acid (4-(3,4-dimethoxy-phenyl)-4-{1,3-dioxo-4-[4-(1R)-(1-phenyl-ethyl)-piperazin-1-yl]-1,3-dihydro-isoindol-2-yl}-butyl)-amide], the IC50 in experiment [1] was 56 nM. Further, in experiment [3], affinity was put at a Ki of 190 nM.

Consider `COc1ccc([C@@H](CCCNc2ccccn2)N2C(=O)c3cccc(N4CCN([C@H](C)c5ccccc5)CC4)c3C2=O)cc1OC` [Cpd 142, (R)-2-[1-(3,4-dimethoxy-phenyl)-4-(pyridin-2-ylamino)-butyl]-4-[4-(1R)-(1-phenyl-ethyl)-piperazin-1-yl]-isoindole-1,3-dione], for which the IC50 in experiment [1] amounted to 97 nM; in experiment [2], 1100 nM.

As to `COc1ccc([C@@H](CCCNC(=O)CN(C)C)N2C(=O)c3cccc(N4CCN([C@H](C)c5ccccc5)CC4)c3C2=O)cc1OC` [Cpd 143, (R)-N-(4-(3,4-dimethoxy-phenyl)-4-{1,3-dioxo-4-[4-(1R)-(1-phenyl-ethyl)-piperazin-1-yl]-1,3-dihydro-isoindol-2-yl}-butyl)-2-dimethylamino-acetamide], the IC50 in experiment [1] came out at 28 nM; in experiment [2], 690 nM.

Take `COc1ccc([C@@H](CCCNS(=O)(=O)c2cccs2)N2C(=O)c3cccc(N4CCN(CC(F)(F)F)CC4)c3C2=O)cc1OC` [Cpd 195, (R)-thiophene-2-sulfonic acid (4-(3,4-dimethoxy-phenyl)-4-{1,3-dioxo-4-[4-(2,2,2-trifluoro-ethyl)-piperazin-1-yl]-1,3-dihydro-isoindol-2-yl}-butyl)-amide]: the figures for the half-maximal inhibitory concentration (IC50) in experiment [1] and in experiment [2] were 2100 nM and greater than 10000 nM, respectively.

`COc1ccc([C@@H](CCCNC(=O)C(C)C)N2C(=O)c3cccc(OC4CCN(C)C4)c3C2=O)cc1OC` (stereo partly drawn) [Cpd 200, (R)-N-{4-(3,4-dimethoxy-phenyl)-4-[4-(1-methyl-pyrrolidin-3-yloxy)-1,3-dioxo-1,3-dihydro-isoindol-2-yl]-butyl}-isobutyramide]: the values for the half-maximal inhibitory concentration (IC50) in experiment [1] and in experiment [2] were 4000 nM and greater than 10000 nM, respectively.

As for `CCN1CCN(c2cccc3c2C(=O)N([C@H](CCCNS(=O)(=O)c2c(C)nn(C)c2C)c2ccc(OC)c(OC)c2)C3=O)CC1` [Cpd 204, (R)-1,3,5-trimethyl-1H-pyrazole-4-sulfonic acid {4-(3,4-dimethoxy-phenyl)-4-[4-(4-ethyl-piperazin-1-yl)-1,3-dioxo-1,3-dihydro-isoindol-2-yl]-butyl}-amide], the figures for the IC50 in experiment [1] and in experiment [2] were 7.5 nM and 200 nM, respectively.

For the compound `COc1ccc([C@@H](CCCNC(=O)C(C)C)N2C(=O)c3cccc(OC4CCN(C)CC4)c3C2=O)cc1OC` [Cpd 205, (R)-N-{4-(3,4-dimethoxy-phenyl)-4-[4-(1-methyl-piperidin-4-yloxy)-1,3-dioxo-1,3-dihydro-isoindol-2-yl]-butyl}-isobutyramide], the 50% inhibitory concentration (IC50) in experiment [1] was 3700 nM; in experiment [2], greater than 3000 nM.

Turning to `CCN1CCN(c2cccc3c2C(=O)N([C@H](CCCOS(=O)(=O)c2cccs2)c2ccc(OC)c(OC)c2)C3=O)CC1` [Cpd 208, (R)-thiophene-2-sulfonic acid 4-(3,4-dimethoxy-phenyl)-4-[4-(4-ethyl-piperazin-1-yl)-1,3-dioxo-1,3-dihydro-isoindol-2-yl]-butyl ester], the half-maximal inhibitory concentration (IC50) in experiment [1] amounted to 320 nM; in experiment [2], 4500 nM.

In the case of `CCN1CCN(c2cccc3c2C(=O)N([C@H](CCCOS(=O)(=O)N(C)C)c2ccc(OC)c(OC)c2)C3=O)CC1` [Cpd 209, (R)-dimethyl-sulfamic acid 4-(3,4-dimethoxy-phenyl)-4-[4-(4-ethyl-piperazin-1-yl)-1,3-dioxo-1,3-dihydro-isoindol-2-yl]-butyl ester], the IC50 in experiment [2] worked out at 3800 nM. Moreover, the affinity in experiment [3], expressed as Ki, was 290 nM.

For `COc1ccc([C@@H](CCNC(=O)OCc2ccccc2)N2C(=O)c3cccc(N4CCN([C@H](C)c5ccccc5)CC4)c3C2=O)cc1OC` [Cpd 216, (R)-(3-(3,4-dimethoxy-phenyl)-3-{1,3-dioxo-4-[4-(1R)-(1-phenyl-ethyl)-piperazin-1-yl]-1,3-dihydro-isoindol-2-yl}-propyl)-carbamic acid benzyl ester], the IC50 in experiment [1] turned out to be 64 nM. Moreover, the Ki in experiment [3] is 130 nM.
